Reference: ChEMBL document CHEMBL5325464, “Design, synthesis and evaluation the bioactivities of novel 1,3-dimethyl-6-amino-1H-indazole derivatives as anticancer agents” (Bioorg Med Chem, 2023)
Activity calls are given as the source filed them. The rule behind the calls is not given here.

Tests used:
[1] = Cytotoxicity against human DPSC cells assessed as reduction of cell viability at 20 uM measured after 24 hrs by MTT assay; assay type: toxicity, cell-based
[2] = system: MCF7; assay: Cytotoxicity against human MCF7 cells assessed as reduction of cell viability at 25 uM measured after 24 hrs by MTT assay; assay type: functional
[3] = target: T1, Indoleamine 2,3-dioxygenase 1 (Homo sapiens, UniProt P14902); assay: Inhibition of human IDO1 expressed in human FaDu cells at IC50 incubated for 24 hrs by ELISA assay; assay type: cell-based
Target sequence in this assay (P14902 whole entry, looked up): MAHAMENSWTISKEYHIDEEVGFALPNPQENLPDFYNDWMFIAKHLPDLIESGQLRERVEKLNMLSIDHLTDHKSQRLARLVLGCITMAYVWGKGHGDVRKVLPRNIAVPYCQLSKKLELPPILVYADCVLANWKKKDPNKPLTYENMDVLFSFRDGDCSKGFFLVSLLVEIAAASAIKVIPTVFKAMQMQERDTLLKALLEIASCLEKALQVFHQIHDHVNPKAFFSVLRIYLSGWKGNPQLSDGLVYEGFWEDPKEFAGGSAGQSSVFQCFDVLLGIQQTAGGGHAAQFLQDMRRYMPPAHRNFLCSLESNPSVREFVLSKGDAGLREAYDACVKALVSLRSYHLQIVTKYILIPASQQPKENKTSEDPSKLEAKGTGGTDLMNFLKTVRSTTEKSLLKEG

[4] = system: FaDu; assay: Cytotoxicity against human FaDu cells assessed as reduction of cell viability at 20 uM measured after 24 hrs by MTT assay; assay type: functional
[5] = Cytotoxicity against human YD-15 cells assessed as reduction of cell viability at 50 uM measured after 24 hrs by MTT assay; assay type: functional
[6] = system: FaDu; assay: Cytotoxicity against human FaDu cells assessed as reduction of cell viability measured after 24 hrs by MTT assay; assay type: functional, cell-based
[7] = system: FaDu; assay: Induction of apoptosis in human FaDu cells assessed as activation of cleaved caspase 3 level upto 3 uM measured after 24 hrs by Western blot analysis; assay type: functional, cell-based
[8] = target: T1, Indoleamine 2,3-dioxygenase 1; assay: Inhibition of human IDO1 expressed in human FaDu cells at 2.78 uM incubated for 24 hrs by ELISA assay relative to control; assay type: cell-based
Target sequence in this assay (P14902 whole entry, looked up): as above

[9] = Activation of ERK pathway in human FaDu cells assessed as decrease in JNK phosphorylation upto 3 uM measured after 24 hrs by Western blotting analysis; assay type: cell-based; conditions: filed as activator
[10] = system: FaDu; assay: Induction of apoptosis in human FaDu cells assessed as nuclear condensation upto 3 uM measured after 24 hrs by DAPI staining based fluorescence microscopic analysis; assay type: functional, cell-based
[11] = system: FaDu; assay: Induction of apoptosis in human FaDu cells assessed as activation of PARP level upto 3 uM measured after 24 hrs by Western blot analysis; assay type: functional, cell-based
[12] = system: FaDu; assay: Downregulation of MMP9 expression in human FaDu cells at 1 to 3 uM incubated for 24 hrs by Western blot analysis; assay type: functional, cell-based; conditions: dose 1-3 µM
[13] = target: T1, Indoleamine 2,3-dioxygenase 1; assay: Inhibition of human IDO1 expressed in human FaDu cells incubated for 24 hrs by Western blotting analysis; assay type: cell-based
Target sequence in this assay (P14902 whole entry, looked up): as above

[14] = system: FaDu; assay: Induction of apoptosis in human FaDu cells assessed as nuclear fragmentation upto 3 uM measured after 24 hrs by DAPI staining based fluorescence microscopic analysis; assay type: functional, cell-based
[15] = system: FaDu; assay: Inhibition of cell migration in human FaDu cells measured after 24 hrs by wound healing assay; assay type: functional, cell-based; conditions: dose 1-3 µM
[16] = Activation of ERK pathway in human FaDu cells assessed as increase in ERK phosphorylation upto 3 uM measured after 24 hrs by Western blotting analysis; assay type: cell-based; conditions: filed as activator
[17] = Activation of ERK pathway in human FaDu cells assessed as effect on p38 phosphorylation upto 3 uM measured after 24 hrs by Western blotting analysis; assay type: cell-based
[18] = target: T1, Indoleamine 2,3-dioxygenase 1; assay: Inhibition of human recombinant IDO1 incubated for 1 hr by HPLC analysis
Target sequence in this assay (P14902 whole entry): as the sequence (P14902 whole entry, looked up) above

Compound | IDO1 inhibition (qualitative) [3] | Activity [1] [%] | Activity [2] [%] | Activity [4] [%] | Activity [5] [%] | IC50 [6] [µM] | also measured
COc1ccc(CNc2ccc3c(C)nn(C)c3c2)c(O)c1 |  | 84.9 | 88.27 | 84.68 | 102.06 | > 50 | 
COc1ccc(CNc2ccc3c(C)nn(C)c3c2)c(OC)c1OC | Active | 90.13 | 104.07 | 7.8 | 101.41 | 1.87 | 
Cc1nn(C)c2cc(NCc3ccc(Br)cc3)ccc12 |  | 94.66 | 102.61 | 8.29 | 7.87 | 2.78 | Activity [7]: Active; inhibition [8]: 45.7%; Activity [9]: Active; Activity [10]: Active; Activity [11]: Active; Activity [12]: Active; inhibition [13]: Dose-Dependent Effect; Activity [14]: Active; inhibition [15]: Dose-Dependent Effect; Activity [16]: Active; Activity [17]: inactive
Cc1nn(C)c2cc(NCc3ccncc3)ccc12 |  | 82.84 | 93.76 | 86.72 | 97.98 | > 50 | 
COc1cc(CNc2ccc3c(C)nn(C)c3c2)cc(OC)c1OC |  | 82.54 | 92.8 | 49.4 | 86.71 | 19.9 | 
Cc1nn(C)c2cc(NCc3ccc(O)cc3)ccc12 |  | 94.7 | 100.39 | 87.72 | 98.59 | > 50 | 
Cc1nn(C)c2cc(NCc3ccc(N(C)C)cc3)ccc12 |  | 91.6 | 84.75 | 93.5 | 26.86 | > 50 | 
O=C(NNc1ccccc1)c1n[nH]c2cc(Br)ccc12 |  |  |  |  |  |  | IC50 [18]: 0.72 µM

More lines, main results first:

IDO1 inhibition (qualitative) [3] | Compound | Activity [1] [%] | Activity [2] [%] | Activity [4] [%] | Activity [5] [%] | IC50 [6] [µM] | also measured
Active | COc1ccc(CNc2ccc3c(C)nn(C)c3c2)cc1O | 86.87 | 95.71 | 7.26 | 99.01 | 6.19 | 
Active | COc1ccc(CNc2ccc3c(C)nn(C)c3c2)cc1 | 91.62 | 102.24 | 10.4 | 67.1 | 6.67 | 
Active | Cc1nn(C)c2cc(NCc3ccc([N+](=O)[O-])cc3)ccc12 | 100.99 | 98.33 | 7.77 | 94.88 | 11.2 | 
Active | Cc1nn(C)c2cc(NCc3ccc(Cl)cc3)ccc12 | 84.13 | 101.58 | 8.43 | 52.82 | 3.57 | 
Active | Cc1nn(C)c2cc(NCc3ccc(F)c(F)c3)ccc12 | 90.4 | 100.45 | 8.08 | 63.3 | 3.49 | 
